Experimental data from patent US4980377A, “1-(aminophenyl)-2-aminopropanone derivatives” (Laboratoire L. Lafon, priority 1984, dated 1990).
“Also recorded” adds a separate entry of the source. Counter-ions that a name gives are not always drawn.

Legend:
[1] = tested on: cellular and humoral immunity; assay: Delayed hypersensitivity to the red blood corpuscles of sheep; type: in vivo
mice [2] = assay: Spontaneous motility; type: in vivo, mouse; conditions: i.p.
Procedure: 0.5 hour after they have received CRL 41 153, the mice (6 per dose, 12 control animals) are placed in an actimeter, where their motility is recorded for 30 minutes.

mice [3] = assay: Overall behavior and reactivities in mice; type: in vivo, mouse; conditions: dose not stated
Procedure: (§1) In the neuropsychopharmacological study which follows, a solution of CRL 41 153 in distilled water (pH 1.5) was administered intraperitoneally in a volume of 20 ml/kg to male mice and 5 ml/kg to male rats.
(§2) Groups of three animals are observed before and then 0.25 hour, 0.50 hour, 1 hour, 2 hours, 3 hours and 24 hours after the administration of CRL 41 153.

rats [4] = assay: Interaction with amphetamine; type: in vivo, rat; conditions: i.p.
Procedure: Amphetamine (2 mg/kg) is injected intraperitoneally into groups of 6 rats 30 minutes after the administration of CRL 41 153. […] 4 mg/kg and 16 mg/kg, CRL 41 153 potentiates the intensity and duration of the stereotypies induced by amphetamine.

[5] = tested on: gravid White New Zealand female rabbits; assay: Teratogenicity in gravid White New Zealand rabbits; type: in vivo, rabbit; conditions: day 5 to day 18 of gestation; for Affected foetuses, %: normal limit 1.5%
Procedure, shortened: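 Fetuses harvested by cesarean on gestation day 29 were scored for number and for any malformation (limb blockade, anury, tail or skull defects, exencephaly).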

mice [6] = assay: Interaction with reserpine; type: in vivo, mouse; conditions: i.p.
Procedure: Four hours after the intraperitoneal injection of 2.5 mg/kg of reserpine, groups of 6 mice receive CRL 41 153.

mice [7] = assay: Interaction with apomorphine in mice; type: in vivo, mouse; conditions: i.p.
Procedure: Groups of 6 mice receive CRL 41 153 0.5 hour before the subcutaneous injection of 1 or 16 mg/kg of apomorphine.

dogs = assay: Cardiovascular study in anesthetized dogs; type: in vivo, dog
Procedure, shortened: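 Measurements: blood pressure, heart rate, femoral and vertebral arterial flow, rectal temperature, skin colour, and for CRL 41 194 bile colour via bile-duct catheter. Doses rose stepwise 0.1–10 mg/kg intraduodenally in solution under nembutal anaesthesia; two dogs got CRL 41 194, four CRL 41 221.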

mice [8] = assay: Interaction with oxotremorine; type: in vivo, mouse; conditions: i.p.
Procedure: CRL 41 153 is administered to groups of 6 mice 0.5 hour before the intraperitoneal injection of 0.5 mg/kg of oxotremorine.

immunity = assay: Immunological study (overall); conditions: in vivo; dihydrochloride
mice [9] = assay: Behavioral despair; type: in vivo, mouse; conditions: forcibly immersed mice, i.p.
Description: Half an hour after they have received CRL 41 153, groups of 6 mice are placed in a beaker filled with water to a height of 6 cm. The total period of immobility between the 2nd and 6th minutes following immersion is noted.

mice [10] = assay: Motility reduced by hypoxic aggression; type: in vivo, mouse; conditions: i.p.
Procedure: Half an hour after they have received CRL 41 153, the mice (10 per dose, 20 control animals) are subjected to acute hypobaric anoxia [pressure reduction of 600 mm Hg (i.e. about 8×10^4 Pa) in 90 seconds; release of vacuum in 45 seconds] and are then placed in an actimeter, where their motility is recorded for 10 minutes.

[11] = tested on: cellular and humoral immunity; assay: Test for cells forming lysis areas; conditions: in vivo
rats [12] = assay: Overall behavior and reactivities in rats; type: in vivo, rat; conditions: dose not stated
Procedure: as §1, §2

CNS = assay: Neuropsychopharmacological profile as a whole; type: in vivo, mice and rats
Procedure: as §1

[13] = pH of solutions in distilled water; type: physicochemical
Procedure: The neuropsychopharmacological study was undertaken according to the procedures described above for CRL 41 153, CRL 41 213 being adminstered intraperitoneally, in solution in distilled water, in a volume of 20 ml/kg to male mice and a volume of 5 ml/kg to male rats, and the pH of the injected solution varying with the concentration of CRL 41 213 according to the data given in Table II below.

rats [14] = assay: Interaction with apomorphine in rats; type: in vivo, rat; conditions: i.p.
Procedure: CRL 41 153 is administered to groups of 6 rats 0.5 hour before the subcutaneous injection of 0.5 mg/kg of apomorphine.

mice [15] = assay: Interaction with barbital; type: in vivo, mouse; conditions: i.p., barbital 220 mg/kg
Procedure: Half an hour after the administration of CRL 41 153, groups of 10 mice receive an intraperitoneal injection of barbital (220 mg/kg).

mice [16] = assay: Motility reduced by habituation to the enclosure; type: in vivo, mouse; conditions: i.p.
Procedure: After they have stayed In the actimeters for 18 hours, (he mice (6 per dose, 12 control animals) receive CRL 41 153. They are immediately returned to their respective enclosures and, half an hour later, their motility is recorded for 30 minutes.

man = assay: Clinical study: treatment of depressions; type: in vivo, human
[17] = anesthetized dogs, intraduodenal

CC(C(=O)c1ccc(N)cc1)N1CCOCC1 (stereo not shown) [CRL 41 237, 1-(4-aminophenyl)-2-morpholinopropanone dihydrochloride]
Activity on the delayed hypersensitivity reaction [1]: weaker activity on the abovementioned delayed hypersensitivity reaction to red blood corpuscles of sheep, at doses of 0.1 mg/kg to 10 mg/kg, administered orally | Spontaneous motor activity (mice [2]): an increase in the spontaneous motor activity of mice | Overall behavior: observed effects (summary) (mice [3]): excitation with hyperreactivity in mice and rats | Stereotype movements (summary) (mice [3]): the presence of stereotype movements in mice and rats | Effect on stereotypies induced by amphetamine (rats [4]): potentiation of the stereotypies | Affected foetuses, number ([5]; 5 mg/kg daily): 0 | Total foetuses (live) ([5]; 5 mg/kg daily): 91 | Affected foetuses, % ([5]; 5 mg/kg daily): 0% | Affected foetuses, number ([5]; 10 mg/kg daily): 1 | Total foetuses (live) ([5]; 10 mg/kg daily): 96 | Affected foetuses, % ([5]; 10 mg/kg daily): 1.04% | Affected foetuses, number ([5]; 50 mg/kg daily): 1 | Total foetuses (live) ([5]; 50 mg/kg daily): 88 | Affected foetuses, % ([5]; 50 mg/kg daily): 1.13% | Effect on hypothermia induced by reserpine (mice [6]): antagonism of the hypothermia | Effect on ptosis induced by reserpine (mice [6]): antagonism of the ptosis induced by reserpine | Effect on hypothermia induced by apomorphine (mice [7]): antagonism of the hypothermia | Femoral flow (dogs; anesthetized dog, intravenous, additional 10 mg/kg): caused an increase in the femoral flow | Effect on hypertension induced by norepinephrine (dogs; anesthetized dogs): distinctly increases the hypertension induced by norepinephrine | Effects of isoprenaline (not further specified) (dogs; anesthetized dogs): does not modify the effects of isoprenaline | Rectal temperature (dogs; anesthetized dogs): The rectal temperature rises gradually | Skin temperature (dogs; anesthetized dogs): a large increase in the skin temperature | Blood pressure (dogs; [17]): No action was observed on the blood pressure | Femoral flow (dogs; [17]): No action was observed on the blood pressure, the femoral flow and the vertebral flow | Heart rate (dogs; [17]): slight tachycardiac effect at 20 mg/kg | Vertebral flow (dogs; [17]): No action was observed on the blood pressure, the femoral flow and the vertebral flow | Effect on hypothermic action of oxotremorine (mice [8]): antagonism of the hypothermia | Effect on trembling induced by oxotremorine (mice [8]): antagonism of the trembling induced by oxotremorine | Immunological effect (overall) (immunity): immunostimulant or immunomodulating effects; also recorded: immunostimulant effects | Period of immobility due to despair (mice [9]): a reduction in the period of immobility | Motor recovery of mice after hypobaric hypoxia (mice [10]): improvement in the motor recovery | Activity in the test for cells forming lysis areas [11]: strong activity according to the abovementioned test for cells forming lysis areas, at a dose of 100 mg/kg, administered orally | Overall behavior: observed effects (summary) (rats [12]): excitation with hyperreactivity in mice and rats | Stereotype movements (summary) (rats [12]): the presence of stereotype movements in mice and rats | Stimulant effects (overall) (CNS; conclusion of the tests): stimulant effects | α-adrenergic stimulant effects (overall) (CNS; conclusion of the tests): effects showing peripheral α-adrenergic stimulation | Antidepressant effects (overall) (CNS; conclusion of the tests, dihydrochloride): good antidepressant; also recorded: antidepressant effects | Peripheral α-adrenergic signs (mydriasis, salivation, lacrimation, exophthalmos) (CNS; species and dose not stated, dihydrochloride): mydriasis | pH ([13]; 0.1 g/liter in distilled water): 5.0 | pH ([13]; 0.2 g/liter in distilled water): 4.5 | pH ([13]; 0.4 g/liter in distilled water): 4.0 | pH ([13]; 0.8 g/liter in distilled water): 3.5 | pH ([13]; 1.6 g/liter in distilled water): 3.0 | pH ([13]; 3.2 g/liter in distilled water): 2.5 | pH ([13]; 6.4 g/liter in distilled water): 2.0 | pH ([13]; 25 g/liter in distilled water): 1.5 | pH ([13]; 50 g/liter in distilled water): 1.0 | pH ([13]; ≤0.05 g/liter in distilled water): 5.5 | Effect on stereotypies induced by apomorphine (rats [14]): potentiation of the stereotypies | Duration of the sleep induced by barbital (mice [15]): a reduction in the duration of the sleep induced by barbital | Motor activity of mice accustomed to their enclosure (mice [16]): resumption in the motor activity of mice accustomed to their enclosure | Result in the treatment of depressions (man): good results were obtained by oral administration in the treatment of depressions at a daily dose of -0 mg
